In PubChem BioAssay (NCI):
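Interpolation was linear, between the two tested concentrations surrounding the appropriate level; five concentrations were tested over 48 hours in 96-well plates. GI50: concentration for 50% inhibition of growth. At the TGI there is no net growth.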

Legend:
Test in all cases: DTP human tumour cell line panel, 48 h
[1] = tested on: EKVX NSCLC
[2] = tested on: IGROV1 ovarian
[3] = tested on: SN12C renal
[4] = tested on: NCI-H226 lung
[5] = tested on: MCF7 breast
[6] = tested on: BT-549 breast
[7] = tested on: COLO 205 colon
[8] = tested on: HOP-92 NSCLC
[9] = tested on: HCT-15 colon
[10] = tested on: 786-0 renal
[11] = tested on: U251 CNS
[12] = tested on: SK-MEL-5 melanoma
[13] = tested on: NCI-H23 lung
[14] = tested on: HT29 colon
[15] = tested on: LOX IMVI melanoma
[16] = tested on: DU-145 prostate
[17] = tested on: SK-MEL-2 melanoma
[18] = tested on: SF-295 CNS
[19] = tested on: SR leukemia
[20] = tested on: SF-268 CNS
[21] = tested on: TK-10 renal
[22] = tested on: MALME-3M melanoma
[23] = tested on: HCC-2998 colon
[24] = tested on: A549 NSCLC
[25] = tested on: A498 renal
[26] = tested on: SK-MEL-28 melanoma
[27] = tested on: CAKI-1 renal
[28] = tested on: KM12 colon
[29] = tested on: T-47D breast
[30] = tested on: NCI-H460 lung
[31] = tested on: HOP-62 NSCLC
[32] = tested on: ACHN renal
[33] = tested on: CCRF-CEM leukemia
[34] = tested on: OVCAR-3 ovarian
[35] = tested on: SNB-19 CNS
[36] = tested on: SW-620 colon
[37] = tested on: MDA-MB-435
[38] = tested on: OVCAR-8 ovarian
[39] = tested on: SNB-75 CNS
[40] = tested on: PC-3 prostate
[41] = tested on: RPMI-8226 leukemia
[42] = tested on: OVCAR-5 ovarian
[43] = tested on: SF-539 CNS
[44] = tested on: OVCAR-4 ovarian
[45] = tested on: NCI-H522 lung
[46] = tested on: NCI/ADR-RES ovarian
[47] = tested on: UACC-62 melanoma
[48] = tested on: HS 578T breast
[49] = tested on: HCT-116 colon
[50] = tested on: HL-60(TB) leukemia
[51] = tested on: M14 melanoma
[52] = tested on: K-562 leukemia
[53] = tested on: RXF 393 renal
[54] = tested on: MDA-MB-231 breast
[55] = tested on: UACC-257 melanoma
[56] = tested on: SK-OV-3 ovarian
[57] = tested on: UO-31 renal
[58] = tested on: MOLT-4 leukemia

COc1ccc(/C=C2\C=C(c3ccccc3)N(CCc3ccccc3)C2=O)cc1OC
GI50 [1]: 10.4 µM | TGI [1]: 54 µM | GI50 [2]: 4.93 µM | TGI [2]: 52.1 µM | GI50 [3]: 4.88 µM | TGI [3]: 21.8 µM | GI50 [4]: 4.6 µM | TGI [4]: 30.2 µM | GI50 [5]: 4.18 µM | TGI [5]: 57.2 µM | GI50 [6]: 12.4 µM | TGI [6]: 49.9 µM | GI50 [7]: 17.3 µM | TGI [7]: > 100 µM | GI50 [8]: 2.54 µM | TGI [8]: 8.17 µM | GI50 [9]: 11.1 µM | TGI [9]: > 100 µM | GI50 [10]: 2.14 µM | TGI [10]: 5.85 µM | GI50 [11]: 3.2 µM | TGI [11]: 9.31 µM | GI50 [12]: 9.29 µM | TGI [12]: 94.5 µM | GI50 [13]: 17 µM | TGI [13]: > 100 µM | GI50 [14]: 8.92 µM | TGI [14]: 48.9 µM | GI50 [15]: 5.94 µM | TGI [15]: 19 µM | GI50 [16]: 13.2 µM | TGI [16]: > 100 µM | GI50 [17]: 18.5 µM | TGI [17]: > 100 µM | GI50 [18]: 5.95 µM | TGI [18]: 24 µM | GI50 [19]: 11.1 µM | TGI [19]: 57.7 µM | GI50 [20]: 8.18 µM | TGI [20]: 26.5 µM | GI50 [21]: 2.28 µM | TGI [21]: 4.91 µM | GI50 [22]: 10.2 µM | TGI [22]: 61.9 µM | GI50 [23]: 12.9 µM | TGI [23]: 64.1 µM | GI50 [24]: 5.06 µM | TGI [24]: 17.7 µM | GI50 [25]: 2.25 µM | TGI [25]: 5.32 µM | GI50 [26]: 6.76 µM | TGI [26]: 68.1 µM | GI50 [27]: 7.53 µM | TGI [27]: > 100 µM | GI50 [28]: 22.2 µM | TGI [28]: > 100 µM | GI50 [29]: 3.2 µM | TGI [29]: 28.1 µM | GI50 [30]: 7.34 µM | TGI [30]: 30.7 µM | GI50 [31]: 2.72 µM | GI50 [32]: 3.53 µM | TGI [32]: 14 µM | GI50 [33]: 35.9 µM | TGI [33]: > 100 µM | GI50 [34]: 4.82 µM | TGI [34]: 17.8 µM | GI50 [35]: 5.08 µM | TGI [35]: 21.5 µM | GI50 [36]: 13.6 µM | TGI [36]: > 100 µM | GI50 [37]: 4.78 µM | TGI [37]: > 100 µM | GI50 [38]: 6.09 µM | TGI [38]: 22.5 µM | GI50 [39]: 1.89 µM | TGI [39]: 6.28 µM | GI50 [40]: 21.1 µM | TGI [40]: > 100 µM | GI50 [41]: 18.4 µM | TGI [41]: 84.9 µM | GI50 [42]: 6.37 µM | TGI [42]: 73.1 µM | GI50 [43]: 6.68 µM | TGI [43]: 23 µM | GI50 [44]: 3.15 µM | TGI [44]: 87 µM | GI50 [45]: 9.8 µM | TGI [45]: 36 µM | GI50 [46]: 9.03 µM | TGI [46]: 68.5 µM | GI50 [47]: 6.01 µM | TGI [47]: 40.9 µM | GI50 [48]: 3.66 µM | TGI [48]: 23.4 µM | GI50 [49]: 3.09 µM | TGI [49]: 11.6 µM | GI50 [50]: 11.7 µM | TGI [50]: 68.6 µM | GI50 [51]: 8.84 µM | TGI [51]: > 100 µM | GI50 [52]: 23.9 µM | TGI [52]: > 100 µM | GI50 [53]: 3.64 µM | TGI [53]: 15.6 µM | GI50 [54]: 4.16 µM | TGI [54]: 17.9 µM | GI50 [55]: 20.2 µM | TGI [55]: 86.8 µM | GI50 [56]: 4.04 µM | TGI [56]: 18.8 µM | GI50 [57]: 4.35 µM | TGI [57]: 20.6 µM

CN(C)c1ccc(/C=C/C2=[N+](C)c3ccccc3C2(C)C)cc1
GI50 [1]: 0.508 µM | TGI [1]: 20 µM | GI50 [2]: 2.19 µM | TGI [2]: > 100 µM | GI50 [3]: 0.354 µM | TGI [3]: 13.4 µM | GI50 [4]: 1.57 µM | TGI [4]: 26.1 µM | GI50 [5]: 0.382 µM | TGI [5]: 8.11 µM | GI50 [6]: 0.467 µM | TGI [6]: 12.6 µM | GI50 [7]: 0.505 µM | TGI [7]: 2.07 µM | GI50 [8]: 1.8 µM | TGI [8]: 9.03 µM | GI50 [9]: 2.66 µM | TGI [9]: 18.6 µM | GI50 [10]: 2.06 µM | TGI [10]: 18.9 µM | GI50 [11]: 0.353 µM | TGI [11]: 12.6 µM | GI50 [13]: 0.286 µM | TGI [13]: 11.9 µM | GI50 [14]: 0.293 µM | TGI [14]: 2.53 µM | GI50 [15]: 0.339 µM | TGI [15]: 10.6 µM | GI50 [16]: 0.453 µM | TGI [16]: 23.9 µM | GI50 [17]: 1.61 µM | TGI [17]: 16.8 µM | GI50 [18]: 1.12 µM | TGI [18]: 6.64 µM | GI50 [19]: 0.13 µM | TGI [19]: 13.9 µM | GI50 [20]: 0.5 µM | TGI [20]: 18.3 µM | GI50 [21]: 1.06 µM | TGI [21]: 32.5 µM | GI50 [22]: 0.662 µM | TGI [22]: 13.1 µM | GI50 [23]: 1.35 µM | TGI [23]: 11.5 µM | GI50 [24]: 2.64 µM | TGI [24]: 14.9 µM | GI50 [25]: 8.86 µM | TGI [25]: 74.9 µM | GI50 [26]: 1.03 µM | TGI [26]: 18 µM | GI50 [27]: 4.69 µM | TGI [27]: > 100 µM | GI50 [28]: 0.328 µM | TGI [28]: 5.85 µM | GI50 [29]: 0.401 µM | TGI [29]: 9.29 µM | GI50 [30]: 0.746 µM | TGI [30]: 10.7 µM | GI50 [31]: 0.862 µM | TGI [31]: 13.8 µM | GI50 [32]: 1.38 µM | TGI [32]: 12.8 µM | GI50 [33]: 0.456 µM | TGI [33]: > 100 µM | GI50 [58]: 0.305 µM | TGI [58]: 2.24 µM | GI50 [34]: 0.301 µM | TGI [34]: 12.3 µM | GI50 [35]: 0.691 µM | TGI [35]: 18.4 µM | GI50 [36]: 0.379 µM | TGI [36]: 17.8 µM | GI50 [37]: 0.467 µM | TGI [37]: 11.7 µM | GI50 [38]: 0.349 µM | TGI [38]: 12.1 µM | GI50 [39]: 2.47 µM | TGI [39]: 20.6 µM | GI50 [40]: 0.235 µM | TGI [40]: 13.8 µM | GI50 [41]: 0.247 µM | TGI [41]: 3.48 µM | GI50 [42]: 2.22 µM | TGI [42]: 22.4 µM | GI50 [43]: 1.65 µM | TGI [43]: 14 µM | GI50 [44]: 1.63 µM | TGI [44]: 31.5 µM | GI50 [45]: 0.587 µM | TGI [45]: 10.1 µM | GI50 [46]: 13.7 µM | TGI [46]: > 100 µM | GI50 [47]: 1.36 µM | TGI [47]: 19.2 µM | GI50 [48]: 4.15 µM | TGI [48]: > 100 µM | GI50 [49]: 0.44 µM | TGI [49]: 20.3 µM | GI50 [50]: 0.231 µM | TGI [50]: 0.801 µM | GI50 [51]: 0.75 µM | TGI [51]: 14.4 µM | GI50 [52]: 0.512 µM | TGI [52]: > 100 µM | GI50 [53]: 2.26 µM | TGI [53]: 16.8 µM | GI50 [54]: 1.51 µM | TGI [54]: 20.9 µM | GI50 [55]: 0.658 µM | TGI [55]: 6.17 µM | GI50 [56]: 0.729 µM | TGI [56]: 4.19 µM | GI50 [57]: 2.61 µM | TGI [57]: 83.3 µM
